Assay results as given in ChEMBL document CHEMBL1140669, “Potent and selective CC-chemokine receptor-2 (CCR2) antagonists as a potential treatment for asthma” (Bioorg Med Chem Lett, 2007).

Experiments:
[1] = […] bioavailability in ip dosed rat; type: ADME, organism-based; settings: in vivo, intraperitoneal
[2] = […] bioavailability in sc dosed rat; type: ADME, organism-based; settings: in vivo, subcutaneous
[3] = Aqueous solubility at pH 7; type: physicochemical
[4] = Metabolic stability in human liver microsomes after 1 hr; type: ADME, Microsome; settings: read-out: Stability
[5] = Aqueous solubility at pH 2; type: physicochemical

bioavailability [1]: 74%
bioavailability [2]: 100%
solubility [3]: > 7000 µg/mL
remaining at 1 h [4]: 100%
solubility [5]: > 7000 µg/mL
SMILES: C[N+](C)(Cc1ccc(NC(=O)c2ccc(Cl)c(Cl)c2)cc1)C1CCOCC1 [JNJ-17166864 CATION]
